We go through one compound from PubChem BioAssay (NCI).

Among the test systems are LXFL 529 NSCLC; DMS 114 small cell lung; DMS 273 small cell lung; A549 NSCLC; BT-549 breast; UACC-257 melanoma; KM12 colon; HT29 colon; HL-60(TB) leukemia; NCI/ADR-RES ovarian.
Assay in all cases: NCI-60 cell line screen, 48 h

Where “and” joins values, the source holds several entries; their conditions need not be identical. Identical values can stand only once.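 1) Cells in 96-well plates. 2) Compound, 48 h, 5 concentrations. 3) Linear interpolation between surrounding doses. 4) Unreached endpoint = highest concentration. At the GI50, growth is halved. TGI is the concentration that stops growth completely.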 Where only a bound is given, the exact number is not on record here.

For the compound `COc1cc(CNc2ccc(SC)cc2)cc(OC)c1OC`, the TGI in the assay with LXFL 529 NSCLC was greater than 100 µM; in the assay with DMS 114 small cell lung, 20.9 µM and 8.02 µM; in the assay on DMS 273 small cell lung it was 28.1 µM and > 36.7 µM; in the assay on A549 NSCLC it was greater than 100 µM; in the assay on BT-549 breast, greater than 100 µM; in the assay with UACC-257 melanoma, > 91.7 µM and 41.8 µM. Also, the TGI with KM12 colon is > 62.7 µM and 20.7 µM; with HT29 colon, 29.9 µM and 14.5 µM; in the assay with HL-60(TB) leukemia, 42.6 µM and 40.2 µM; in the assay with NCI/ADR-RES ovarian, 23.9 µM and > 22.6 µM. Also, the GI50 with BT-549 breast was 9.13 µM; in the assay with UACC-257 melanoma it was 24.9 µM and 9.7 µM; in the assay on KM12 colon, 4.44 µM and 2.21 µM.
